Experimental data: patent publication US12544373B2, “Treatment of cancer, inflammatory diseases and autoimmune diseases” (Usher III Initiative, Inc., priority 2020, dated 2026)
“And” between values parts separate entries of the source, which are not always exact repeats. Equal entries are not always repeated. Where two headings read alike, the source gives them in different places.

Experiments:
[1] = test system: 10 human tumor cell lines; test: CellTiter-Blue 2D monolayer assay (Example 1), whole panel; format: cell-based
Method: Compound 85 was assessed in 10 human tumor cell lines (see Table 3) for anti-cancer activity in vitro using a CellTiter-Blue® based 2D monolayer assay.
CellTiter-Blue® Cell Viability Assay: Tumor cells were grown at 37° C. in a humidified atmosphere with 5% CO2 in RPMI medium, supplemented with 10% (v/v) fetal calf serum and 50 μg/ml gentamicin (140 μl/well). Cultures were incubated at 37° C. and 5% CO2 in a humidified atmosphere. After 24 hours, 10 μl of Compound 85 was added, and left on the cells for another 72 hours (incubation period). Compound 85 was tested at 5 concentrations (0.003 μM, 0.03 μM, 0.3 μM, 3 μM, and 30 μM) and serially diluted in DMSO, mixed with cell culture medium, and added to the assay plates by using a Tecan Freedom EVO 200 robotic platform. The DMSO concentration was kept constant at 0.3% yip across the assay plate. Every 96 well plate included six DMSO-treated control wells and Compound 85-treated wells in duplicate at 5 concentrations. Viability of cells was quantified using the CellTiter-Blue® cell viability assay (Promega G8081). After incubation of cells, the CellTiter-Blue® reagent was brought to ambient temperature. Next, 20 μl of CellTiter-Blue® reagent were added to each well. After incubation tier up to 4 hours, fluorescence (FU) was measured using the EnSpire® multimode plate reader (Perkin Elmer) ([…]).
Data Evaluation: Sigmoidal concentration-response curves were fitted to the data points (test-versus-control; T/C values) obtained for each tumor model using 4 parameter non-linear curve fit (Charles River DRS Datawarehouse Software). Drug effects are expressed in terms of the percentage of the fluorescence signal, obtained by comparison of the mean signal in the treated wells with the mean signal of the untreated controls (T/C-value [%]) (Table 4). IC50 and IC70 values were reported as relative and absolute IC50 and IC70 values (Table 5). The absolute IC50 and IC70 values reflect the concentration of Compound 85 that achieves T/C=50% and T/C=30%, respectively. The relative IC50 value is the concentration of Compound 85 that gives a response half way between the top and bottom plateau of the sigmoidal concentration-response curve (inflection point of the curve).

[2] = test system: CXF HCC-2998; test: CellTiter-Blue Cell Viability Assay (Example 2), colon; format: cell-based, human; settings: for T/C %: 72 h
Description: (§1) The CellTiter-Blue® Cell Viability Assay was used to assess the viability of cells from various cancer cell lines, in the presence or absence of Compound 85 (at different concentrations). This assay provides a homogeneous, fluorometric method for estimating the number of viable cells present in multi-well plates. Viable cells retain the ability to reduce resazurin to resorufin, which is highly fluorescent. […] The fluorescence produced is proportional to the number of viable cells. There is a linear relationship between cell number and fluorescence.
(§2) Cancer cells (see Table 6) were harvested from exponential phase cultures, counted and plated in 96 well flat-bottom microtiter plates, at a cell density 6,000-20,000 cells/well, depending on the cell line's growth rate. The culture medium was supplemented with 10% (v/v) foetal calf serum and 50 μg/mL gentamicin (140 μL/well). Cultures were incubated at 37° C. and 5% CO2 in a humidified atmosphere.
(§3) Compound 85 was serially diluted in DMSO, and five Compound 85 concentrations in half-log increments were used: 0.03 μM, 0.09 μM, 0.30 μM, 1.0 μM, and 3.0 μM. After 24 h, 10 μL of Compound 85 (dissolved in DMSO) or control (DMSO) medium were added, in duplicates, and left on the cells for another 72 h. Compound 85 solutions were added to the assay plates using a Tecan Freedom EVO 200 robotic platform. The DMSO concentration was kept constant at 0.3% v/v across the assay plate.
(§4) After incubation of up to 72 hours, fluorescence (FU) was measured using the EnSpire® multimode plate reader (Perkin Elmer) (excitation λ=570 nm, emission λ=600 nm).
(§5) Cancer cell lines used: Compound 85's anti-cancer effect was tested in 20 human cancer-cell lines representing nine cancer types (Table 6).
(§6) The percentage of viable cells in the presence of Compound 85 (Test condition, T), at different concentrations, are presented in Table 7 and expressed as a percentage of the number of viable cells in the presence of DMSO without Compound 85 (Control condition, C).
(§7) The relative IC50 is determined as the Compound 85 concentration giving a response halfway between the maximum cell viability signal (i.e., a 100% cell viability, no Compound 85 response) and the minimal viability signal (i.e. maximum cell viability inhibition achieved by Compound 85), in a sigmoidal concentration-effect curve.
(§8) The absolute IC50 is determined as the concentration that is associated with a T/C ratio of 50%.

[3] = test system: OVXF 899; test: CellTiter-Blue Cell Viability Assay (Example 2), ovarian; format: cell-based, human; settings: for T/C %: 72 h
Description: as §1, §2, §3, §4, §5, §6, §7, §8

[4] = test system: OVXF A2780; test: as above; format: cell-based, human; settings: for T/C %: 72 h
Description: as §1, §2, §3, §4, §5, §6, §7, §8

[5] = test system: PAXF 1657; test: CellTiter-Blue Cell Viability Assay (Example 2), pancreatic; format: cell-based, human; settings: for T/C %: 72 h
Description: as §1, §2, §3, §4, §5, §6, §7, §8

[6] = test system: PAXF HUP-T3; test: as above; format: cell-based, human; settings: for T/C %: 72 h
Description: as §1, §2, §3, §4, §5, §6, §7, §8

[7] = test system: 20 human cancer-cell lines representing nine cancer types; test: CellTiter-Blue Cell Viability Assay (Example 2), whole panel; format: cell-based
Description: as §1, §2, §3, §4, §5, §6, §7, §8

[8] = geometric mean over 10 cell lines
[9] = geometric mean over human cancer cell lines of Table 8

## CC(C)(O)Cn1nc(-c2ccccc2)c2c(Cl)c(-c3ccccc3)nnc21 [Compound 85]
[1]; all cell lines of Table 3
  inhibition of the tumor cell growth: concentration-dependent inhibition
[1]; [8]
  Geometric mean Abs. IC70: 1258 nM
  Geometric mean Rel. IC70: 1226 nM
[1]; geometric mean over 10 cell lines, read-out: Geometric mean Abs. IC50
  IC50: 950 nM and 948 nM
[1]; geometric mean over 10 cell lines, read-out: Geometric mean Rel. IC50
  IC50: 926 nM
[2]
  Absolute IC70: 1125 nM
  Relative IC70: 891 nM
[2]; 0.03 μM
  T/C %: 98%
[2]; 0.095 μM
  T/C %: 99%
[2]; 0.3 μM
  T/C %: 98%
[2]; 0.95 μM
  T/C %: 40%
[2]; 3.0 μM
  T/C %: 22%
[2]; read-out: Absolute IC50
  IC50: 844 nM
[2]; read-out: Relative IC50
  IC50: 765 nM
[3]
  Absolute IC70: 418 nM
  Relative IC70: 423 nM
[3]; 0.03 μM
  T/C %: 98%
[3]; 0.095 μM
  T/C %: 94%
[3]; 0.3 μM
  T/C %: 65%
[3]; 0.95 μM
  T/C %: 1%
[3]; 3.0 μM
  T/C %: 0%
[3]; read-out: Absolute IC50
  IC50: 346 nM
[3]; read-out: Relative IC50
  IC50: 352 nM
[4]
  Absolute IC70: 463 nM
  Relative IC70: 463 nM
[4]; 0.03 μM
  T/C %: 102%
[4]; 0.095 μM
  T/C %: 96%
[4]; 0.3 μM
  T/C %: 87%
[4]; 0.95 μM
  T/C %: 0%
[4]; 3.0 μM
  T/C %: 0%
[4]; read-out: Absolute IC50
  IC50: 405 nM
[4]; read-out: Relative IC50
  IC50: 406 nM
[5]
  Absolute IC70: 1166 nM
  Relative IC70: 1169 nM
[5]; 0.03 μM
  T/C %: 97%
[5]; 0.095 μM
  T/C %: 94%
[5]; 0.3 μM
  T/C %: 97%
[5]; 0.95 μM
  T/C %: 66%
[5]; 3.0 μM
  T/C %: 1%
[5]; read-out: Absolute IC50
  IC50: 1040 nM
[5]; read-out: Relative IC50
  IC50: 1050 nM
[6]
  Absolute IC70: 723 nM
  Relative IC70: 602 nM
[6]; 0.03 μM
  T/C %: 95%
[6]; 0.095 μM
  T/C %: 102%
[6]; 0.3 μM
  T/C %: 88%
[6]; 0.95 μM
  T/C %: 21%
[6]; 3.0 μM
  T/C %: 16%
[6]; read-out: Absolute IC50
  IC50: 532 nM
[6]; read-out: Relative IC50
  IC50: 487 nM
[7]; all of the 20 human cancer cell lines tested
  anti-cancer activity, concentration dependence: concentration dependent anti-cancer activity
[7]; at concentration of 0.95 μM, 20 human cancer-cell lines, nine cancer types
  anti-cancer activity: significant anti-cancer activity
[7]; [9]
  geometric mean absolute IC70: 712 nM
  geometric mean relative IC70: 675 nM
[7]; geometric mean over human cancer cell lines of Table 8, read-out: geometric mean absolute IC50
  IC50: 596 nM and 600 nM
[7]; geometric mean over human cancer cell lines of Table 8, read-out: geometric mean relative IC50
  IC50: 583 nM
